Experimental data reported in article PMC9917443 (eLife, 2023).

How the values were obtained:
[1] = target: T1, GB1a/2 receptors (Homo sapiens, UniProt O75899+Q9UBS5); assay: SRE-luciferase accumulation assay (Gαqi/PLC) in HEK293T-Gαqi cells; details: constitutive and GABA-induced FLuc activity
[2] = target: T1, GB1a/2 receptors; assay: PKA luminescence assay (R-RLuc-N / C-RLuc-C) of Gαi signaling in HEK293T cells; details: GABA 10 μM or CGP54626 10 μM; forskolin
[3] = target: T1, GB1a/2 receptors; assay: BRET assay of G protein activation (Gαo-RLuc / Venus-Gγ2) in HEK293T cells; assay type: cell-based; design: Flag (N); expressed in transfected cells; host or cells: HEK293T cells stably expressing chimeric Gαqi; details: GABA or CGP54626, 10 μM
Description: We directly tested whether APP17 influences G protein activation by GBRs in transfected HEK293T cells. […] HEK293T cells were transiently transfected with Flag-GB1a, Flag-GB2, Gαo-RLuc, Gβ2, and Venus-Gγ2 plasmids with or without APP695. In order to ensure APP695 binding to GB1a/2 in trans a pool of HEK293T cells expressing APP695 was mixed with a pool of HEK293T cells expressing Flag-GB1a, Flag-GB2, Gαo-RLuc, Gβ2, and Venus-Gγ2. Transfected cells were seeded into 96-well microplates (Greiner Bio-One) at 100,000 cells/well. After 18 hr, cells were washed and coelenterazine h (5 µM, NanoLight Technologies, Prolume Ltd., Pinetop-Lakeside, AZ, USA) added for 5 min. […] BRET ratios were adjusted by subtracting the ratios obtained when RLuc fusion proteins were expressed alone. Each data point represents a technical quadruplicate.

[4] = system: mGlu5 receptors; assay: Ca^2+ mobilization assay (Calcium 6) in HEK293T cells expressing mGlu5; assay type: cell-based; details: 1 and 10 µM

T1 sequence (Q9UBS5 15-961 limits assumed): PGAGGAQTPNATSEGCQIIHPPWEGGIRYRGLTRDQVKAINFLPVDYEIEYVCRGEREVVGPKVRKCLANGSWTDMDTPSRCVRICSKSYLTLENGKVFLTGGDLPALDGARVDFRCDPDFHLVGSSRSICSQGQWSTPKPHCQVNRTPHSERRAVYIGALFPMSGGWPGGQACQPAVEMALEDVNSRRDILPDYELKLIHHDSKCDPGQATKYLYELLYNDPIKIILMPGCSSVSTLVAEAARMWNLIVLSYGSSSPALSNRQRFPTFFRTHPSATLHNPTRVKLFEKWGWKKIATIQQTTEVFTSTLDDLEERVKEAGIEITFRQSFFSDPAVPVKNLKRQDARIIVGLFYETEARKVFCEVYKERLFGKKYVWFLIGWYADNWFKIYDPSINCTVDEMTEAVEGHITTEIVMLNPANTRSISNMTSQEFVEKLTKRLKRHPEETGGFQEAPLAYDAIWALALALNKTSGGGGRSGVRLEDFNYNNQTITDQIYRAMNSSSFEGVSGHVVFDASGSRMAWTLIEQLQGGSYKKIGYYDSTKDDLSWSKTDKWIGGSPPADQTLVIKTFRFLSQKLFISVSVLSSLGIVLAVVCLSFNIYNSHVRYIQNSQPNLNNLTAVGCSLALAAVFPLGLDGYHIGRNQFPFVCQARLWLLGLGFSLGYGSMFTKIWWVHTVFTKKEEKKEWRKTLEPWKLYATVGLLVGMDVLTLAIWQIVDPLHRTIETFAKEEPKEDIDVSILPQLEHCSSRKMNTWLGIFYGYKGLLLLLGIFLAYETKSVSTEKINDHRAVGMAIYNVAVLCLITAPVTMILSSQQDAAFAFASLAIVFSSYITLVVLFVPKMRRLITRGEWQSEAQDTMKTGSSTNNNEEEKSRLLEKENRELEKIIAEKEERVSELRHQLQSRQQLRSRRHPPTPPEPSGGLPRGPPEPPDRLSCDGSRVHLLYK
T1 sequence (O75899 42-941 partner): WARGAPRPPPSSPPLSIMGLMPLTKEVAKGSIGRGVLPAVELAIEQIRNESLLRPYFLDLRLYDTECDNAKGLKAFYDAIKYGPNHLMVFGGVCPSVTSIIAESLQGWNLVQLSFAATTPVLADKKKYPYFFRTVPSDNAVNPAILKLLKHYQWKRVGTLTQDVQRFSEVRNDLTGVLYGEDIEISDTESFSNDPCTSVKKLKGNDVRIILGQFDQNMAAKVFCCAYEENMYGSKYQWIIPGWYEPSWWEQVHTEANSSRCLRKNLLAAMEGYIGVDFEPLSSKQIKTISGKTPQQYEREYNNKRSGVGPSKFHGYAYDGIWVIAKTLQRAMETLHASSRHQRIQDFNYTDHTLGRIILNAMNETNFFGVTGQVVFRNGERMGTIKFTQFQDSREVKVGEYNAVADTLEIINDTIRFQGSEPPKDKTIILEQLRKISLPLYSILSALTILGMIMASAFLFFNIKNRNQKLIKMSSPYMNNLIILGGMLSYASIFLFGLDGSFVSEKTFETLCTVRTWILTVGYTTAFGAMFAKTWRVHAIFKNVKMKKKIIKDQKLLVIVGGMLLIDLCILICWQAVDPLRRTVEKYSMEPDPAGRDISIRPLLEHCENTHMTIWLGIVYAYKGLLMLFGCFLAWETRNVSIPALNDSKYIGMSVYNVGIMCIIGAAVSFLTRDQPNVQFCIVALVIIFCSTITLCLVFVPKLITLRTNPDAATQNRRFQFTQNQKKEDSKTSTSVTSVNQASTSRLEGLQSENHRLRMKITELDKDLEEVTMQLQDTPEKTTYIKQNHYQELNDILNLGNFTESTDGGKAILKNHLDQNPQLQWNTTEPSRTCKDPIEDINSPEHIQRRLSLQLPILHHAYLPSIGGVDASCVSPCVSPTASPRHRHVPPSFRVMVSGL

SMILES	block of receptor activity (in words) [1]	luminescence change by receptor ligand (in words) [2]	BRET change by receptor ligand (in words) [3]	intracellular Ca^2+ mobilization (in words) [4]
C[C@H](NC[C@H](O)CP(=O)(O)CC1CCCCC1)c1ccc(Cl)c(Cl)c1 [CGP54626]	blocked constitutive and GABA-induced receptor activity	decreased luminescence below baseline	increased BRET above baseline	
N[C@H](C(=O)O)c1cc(O)cc(O)c1 [DHPG]				concentration-dependent increase in intracellular Ca^2+
